# Laboratory results as given in ChEMBL document CHEMBL6096698, “Discovery of a Selective and Orally Bioavailable RET Degrader with Effectiveness in Various Mutations” (J Med Chem, 2025).
# Calls of active or inactive are those of the source. The calls are words filed in the database; no cut-off is given here.
# Tests used:
# BaF3 [1] = assay: Antiproliferative activity against mouse BaF3 cells stably expressing KIF5B-RET incubated for 72 hrs by CCK8 assay; assay type: functional, cell-based; conditions: BaF3, 72 h
# BaF3 [2] = assay: PROTAC activity at VHL/KIF5B-RET (unknown origin) expressed in mouse BaF3 cells assessed as induction of RET degradation at 10 nM incubated for 24 hrs by immunoblot analysis relative to control; assay type: cell-based
# BaF3 [3] = assay: Antiproliferative activity against mouse BaF3 cells stably expressing KIF5B-RET V804M mutant incubated for 72 hrs by CCK8 assay; assay type: functional, cell-based; conditions: BaF3, 72 h
# BaF3 [4] = assay: Antiproliferative activity against mouse BaF3 cells stably expressing KIF5B-RET G810C mutant incubated for 72 hrs by CCK8 assay; assay type: functional, cell-based; conditions: BaF3, 72 h
# BaF3 [5] = assay: Antiproliferative activity against mouse BaF3 cells stably expressing KIF5B-RET G810R mutant incubated for 72 hrs by CCK8 assay; assay type: functional, cell-based; conditions: BaF3, 72 h
# BaF3 [6] = assay: Antiproliferative activity against mouse BaF3 cells stably expressing KIF5B-RET G810S mutant incubated for 72 hrs by CCK8 assay; assay type: functional, cell-based; conditions: BaF3, 72 h
# BaF3 [7] = assay: PROTAC activity at CRBN/KIF5B-RET (unknown origin) expressed in mouse BaF3 cells assessed as induction of RET degradation at 10 nM incubated for 24 hrs by immunoblot analysis relative to control; assay type: cell-based
# [8] = target: Proto-oncogene tyrosine-protein kinase receptor Ret (Homo sapiens, UniProt P07949); assay: Inhibition of RET (unknown origin) preincubated for 10 mins followed by substrate/ATP addition measured after 30 mins by HTRF assay
# Sequence of Proto-oncogene tyrosine-protein kinase receptor Ret (P07949 whole entry): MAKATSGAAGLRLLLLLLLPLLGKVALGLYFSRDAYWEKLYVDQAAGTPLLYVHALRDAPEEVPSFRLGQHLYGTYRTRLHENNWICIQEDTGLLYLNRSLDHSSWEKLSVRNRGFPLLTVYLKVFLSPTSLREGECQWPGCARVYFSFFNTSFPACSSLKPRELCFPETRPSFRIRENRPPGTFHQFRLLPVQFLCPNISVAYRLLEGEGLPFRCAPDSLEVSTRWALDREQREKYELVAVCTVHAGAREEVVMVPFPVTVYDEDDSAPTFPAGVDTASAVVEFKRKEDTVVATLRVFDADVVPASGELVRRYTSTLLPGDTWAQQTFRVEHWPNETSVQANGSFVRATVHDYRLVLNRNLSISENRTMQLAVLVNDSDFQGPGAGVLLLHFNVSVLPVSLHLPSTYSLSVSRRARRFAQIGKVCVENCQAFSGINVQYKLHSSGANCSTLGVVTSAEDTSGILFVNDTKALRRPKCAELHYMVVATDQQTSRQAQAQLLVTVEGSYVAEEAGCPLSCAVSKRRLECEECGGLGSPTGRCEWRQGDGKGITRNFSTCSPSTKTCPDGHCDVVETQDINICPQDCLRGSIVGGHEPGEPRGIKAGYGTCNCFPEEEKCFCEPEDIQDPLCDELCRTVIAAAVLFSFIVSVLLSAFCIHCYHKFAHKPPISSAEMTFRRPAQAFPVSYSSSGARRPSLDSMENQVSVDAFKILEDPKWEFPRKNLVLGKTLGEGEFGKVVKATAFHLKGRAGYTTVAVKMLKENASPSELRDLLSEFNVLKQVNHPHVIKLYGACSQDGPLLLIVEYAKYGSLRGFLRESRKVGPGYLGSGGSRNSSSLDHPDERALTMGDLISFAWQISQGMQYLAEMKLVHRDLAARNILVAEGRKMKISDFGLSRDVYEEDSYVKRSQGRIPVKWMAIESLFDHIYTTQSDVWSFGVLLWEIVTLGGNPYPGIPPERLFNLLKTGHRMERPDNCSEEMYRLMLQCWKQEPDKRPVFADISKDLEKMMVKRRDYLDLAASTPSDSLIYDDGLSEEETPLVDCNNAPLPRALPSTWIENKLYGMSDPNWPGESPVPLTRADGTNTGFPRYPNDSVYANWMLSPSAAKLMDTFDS
# BaF3 [9] = assay: PROTAC activity at CRBN/KIF5B-RET (unknown origin) expressed in mouse BaF3 cells assessed as induction of RET degradation at 10 nM incubated for 24 hrs by immunoblot analysis; assay type: cell-based
# BaF3 [10] = assay: Induction of degradation of KIF5B-RET (unknown origin) expressed in mouse BaF3 cells at 10 nM incubated for 24 hrs by immunoblot analysis relative to control; assay type: cell-based; conditions: Homo sapiens
# BaF3 [11] = assay: Antiproliferative activity against mouse BaF3 cells stably expressing CCDC6-RET incubated for 72 hrs by CCK8 assay; assay type: functional, cell-based; conditions: BaF3, 72 h
# BaF3 [12] = assay: Antiproliferative activity against mouse BaF3 cells stably expressing CCDC6-RET V804M mutant incubated for 72 hrs by CCK8 assay; assay type: functional, cell-based; conditions: BaF3, 72 h
# BaF3 [13] = assay: Antiproliferative activity against mouse BaF3 cells stably expressing CCDC6-RET G810C mutant incubated for 72 hrs by CCK8 assay; assay type: functional, cell-based; conditions: BaF3, 72 h
# BaF3 [14] = assay: Antiproliferative activity against mouse BaF3 cells stably expressing CCDC6-RET G810R mutant incubated for 72 hrs by CCK8 assay; assay type: functional, cell-based; conditions: BaF3, 72 h
# [15] = Induction of apoptosis in mouse BaF3 cells stably expressing KIF5B-RET G810C mutant assessed as viable cells at 100 nM incubated for 48 hrs by Annexin V-FITC/PI staining based flow cytometry (reference value: 92.21 %); assay type: functional; conditions: read-out: Activity
# [16] = Induction of apoptosis in mouse BaF3 cells stably expressing KIF5B-RET G810C mutant assessed as early apoptotic cells at 100 nM incubated for 48 hrs by Annexin V-FITC/PI staining based flow cytometry (reference value: 0.86 %); assay type: functional
# [17] = Induction of apoptosis in mouse BaF3 cells stably expressing KIF5B-RET G810C mutant assessed as late apoptotic cells at 100 nM incubated for 48 hrs by Annexin V-FITC/PI staining based flow cytometry (reference value: 5.99 %); assay type: functional
# [18] = Induction of apoptosis in mouse BaF3 cells stably expressing KIF5B-RET G810C mutant assessed as necrotic cells at 100 nM incubated for 48 hrs by Annexin V-FITC/PI staining based flow cytometry (reference value: 0.94 %); assay type: functional
IC50 (BaF3 [1]) [nM],IC50 (BaF3 [3]) [nM],IC50 (BaF3 [4]) [nM],IC50 (BaF3 [5]) [nM],IC50 (BaF3 [6]) [nM],IC50 [8] [nM],IC50 (BaF3 [11]) [nM],IC50 (BaF3 [12]) [nM],IC50 (BaF3 [13]) [nM],IC50 (BaF3 [14]) [nM],SMILES,Activity (BaF3 [2]) [%],Activity (BaF3 [7]) [%],Activity (BaF3 [9]),Activity (BaF3 [10]) [%],viability at 0.1 µM [15] [%],Activity [16] [%],Activity [17] [%],Activity [18] [%]
12.3,36.5,410,> 5000,216,,,,,,COc1ccc(CN2C3CC2CN(c2ccc(-c4cc(N5CCN(C(=O)CCCCCCCCC(=O)N[C@H](C(=O)N6C[C@H](O)C[C@H]6C(=O)N[C@@H](C)c6ccc(-c7scnc7C)cc6)C(C)(C)C)CC5)cn5ncc(C#N)c45)cn2)C3)cn1,39,,,,,,,
309,> 5000,> 5000,> 5000,> 5000,,,,,,COc1ccc(CN2C3CC2CN(c2ccc(-c4cc(N5CCN(C(=O)CCCCC(=O)N[C@H](C(=O)N6C[C@H](O)C[C@H]6C(=O)N[C@@H](C)c6ccc(-c7scnc7C)cc6)C(C)(C)C)CC5)cn5ncc(C#N)c45)cn2)C3)cn1,10,,,,,,,
2.5,11.3,149,513,76.1,0.276,,,,,COc1ccc(CN2C3CC2CN(c2ccc(-c4cc(N5CCC(N6CCN(C(=O)CCCNc7cccc8c7C(=O)N(C7CCC(=O)NC7=O)C8=O)CC6)CC5)cn5ncc(C#N)c45)cn2)C3)cn1 (configuration not stated),,62,,,,,,
,,,,,,,,,,COc1ccc(CN2C3CC2CN(c2ccc(-c4cc(N5CCC(N6CCN(CCCC#Cc7cccc8c7CN(C7CCC(=O)N(C)C7=O)C8=O)CC6)CC5)cn5ncc(C#N)c45)cn2)C3)cn1 (configuration not stated),,,inactive,,,,,
40.2,983,> 5000,> 5000,> 5000,,,,,,COc1ccc(CN2C3CC2CN(c2ccc(-c4cc(N5CCN(CCCCCCC(=O)N[C@H](C(=O)N6C[C@H](O)C[C@H]6C(=O)N[C@@H](C)c6ccc(-c7scnc7C)cc6)C(C)(C)C)CC5)cn5ncc(C#N)c45)cn2)C3)cn1,23,,,,,,,
1.6,13.7,126,453,62.1,0.203,,,,,COc1ccc(CN2C3CC2CN(c2ccc(-c4cc(N5CCN(C(=O)CCCCCCCNc6cccc7c6C(=O)N(C6CCC(=O)NC6=O)C7=O)CC5)cn5ncc(C#N)c45)cn2)C3)cn1 (configuration not stated),,73,,,,,,
6.8,17.4,232,811,125,,,,,,COc1ccc(CN2C3CC2CN(c2ccc(-c4cc(N5CCN(C(=O)CCCCCNc6ccc7c(c6)C(=O)N(C6CCC(=O)NC6=O)C7=O)CC5)cn5ncc(C#N)c45)cn2)C3)cn1 (configuration not stated),,49,,,,,,
5.7,14.1,228,714,102,,,,,,COc1ccc(CN2C3CC2CN(c2ccc(-c4cc(N5CCN(C(=O)CCCCCCCNc6ccc7c(c6)C(=O)N(C6CCC(=O)NC6=O)C7=O)CC5)cn5ncc(C#N)c45)cn2)C3)cn1 (configuration not stated),,52,,,,,,
10.3,21.4,192,1890,126,,,,,,COc1ccc(CN2C3CC2CN(c2ccc(-c4cc(N5CCN(CC6CCN(c7ccc8c(c7)C(=O)N(C7CCC(=O)NC7=O)C8=O)CC6)CC5)cn5ncc(C#N)c45)cn2)C3)cn1 (configuration not stated),,41,,,,,,
5.1,12.4,89.2,321,84.1,,,,,,COc1ccc(CN2C3CC2CN(c2ccc(-c4cc(N5CCC(N6CCN(CCCC#Cc7ccc8c(c7)C(=O)N(C7CCC(=O)NC7=O)C8=O)CC6)CC5)cn5ncc(C#N)c45)cn2)C3)cn1 (configuration not stated),,60,,,,,,
7.7,16.5,380,690,95.2,,4.2,12.2,626,365,COc1ccc(CN2C3CC2CN(c2ccc(-c4cc(OCC(C)(C)O)cn5ncc(C#N)c45)cn2)C3)cn1 [SELPERCATINIB],,,,0,90.7,1.04,6.67,1.63
19,190,1380,1770,384,,,,,,COc1ccc(CN2C3CC2CN(c2ccc(-c4cc(N5CCN(C(=O)CNc6cccc7c6C(=O)N(C6CCC(=O)NC6=O)C7=O)CC5)cn5ncc(C#N)c45)cn2)C3)cn1 (configuration not stated),,33,,,,,,
